Values belong to the molecule of their own block, whether it stands above or below them.
Legend:
Adenosine A2A = Adenosine A2A (Homo sapiens, UniProt P29274); assay: Functional assay (luciferase reporter), inhibition of A2A adenosine receptor; type: cell-based; design: expressed in transfected cells; host or cells: CHO-DUKX-CRE-A2A-19 (CHO-DUKX, vector pCineo); conditions: for IC50: CHO-DUKX-CRE-A2A-19 cells, 60 nM NECA, read-out: A2A AR IC50; for A2A AR Imax: Imax in % of the corresponding antagonist; for Ki: Ki=IC50/(1+agonist concentration/EC50), read-out: A2A AR Ki
Adenosine A1 = molecular target: T1, Adenosine A1 (Homo sapiens, UniProt P30542); assay: Functional assay (luciferase reporter), inhibition of A1 adenosine receptor; type: cell-based; design: expressed in transfected cells; host or cells: CHO-DUKX-SRE-Luci-A1-44 (CHO-DUKX, vector pCineo); conditions: for IC50: CHO-DUKX-SRE-Luci-A1-44 cells, 3.5 μM ADAC, read-out: A1 AR IC50; for A1 AR Imax: Imax in % of the corresponding antagonist (CPX); for Ki: Ki=IC50/(1+agonist concentration/EC50), read-out: A1 AR Ki
T1 sequence (P30542 1-326): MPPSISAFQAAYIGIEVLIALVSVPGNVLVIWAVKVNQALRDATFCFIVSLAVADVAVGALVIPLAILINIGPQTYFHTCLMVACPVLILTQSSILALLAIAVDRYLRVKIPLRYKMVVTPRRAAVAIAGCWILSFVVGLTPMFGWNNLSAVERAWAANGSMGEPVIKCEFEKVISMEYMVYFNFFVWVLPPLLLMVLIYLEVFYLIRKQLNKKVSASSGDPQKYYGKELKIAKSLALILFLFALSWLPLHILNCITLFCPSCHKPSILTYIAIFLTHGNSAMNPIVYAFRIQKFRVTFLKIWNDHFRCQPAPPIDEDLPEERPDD

rats = assay: Modified Irwin test (FOB, SAC, FU); type: in vivo, rat; design: key to Hypersensitivity / Temperature / Respiration / Tremor / Stereotypies / Patterns Activity / Motor Coordination / Catalepsy: +++ = very strong effect.; ++ = strong effect.; + = average effect.; 0 = no effect.; − = negative effect; conditions: modified Irwin test, 0.01-30 mg/kg, compressed outcome
Excerpt: In this study the compounds of the present invention were screened for basal behavioural, autonomic, neurological and toxicological side-effects in rats. For this purpose, a functional observational battery (FOB) in form of an Irwin test (Irwin S., Psychopharmacologia, 1968, 13, 222; 1968; Warburton D. M. Psychopharmacology, 2002, 163, 4; Haggerty G. C. et al., J. Amer. Coll. Toxicol., 1991, 10, 677; Mattsson J. L. et al., J. Amer. Coll. Toxicol., 1996, 15, 239, all references are herein incorporated by reference) modified and validated by the Test Facility was used. Each test compound was tested at eight doses (0.01, 0.03, 0.1, 0.3, 1.0, 3.0, 10.0 and 30.0 mg/kg). All compounds were dissolved in DMSO (administration volume 1 ml/kg). Each dose group included three animals. Two vehicle groups (DMSO and Labrasol) served as negative controls.
At the first day of each test week all test compound solutions necessary for the test (1-2 weeks) were prepared by means of one dilution series starting with the highest concentration. All test compounds dissolved in DMSO were administered in a volume of 1 ml/kg. DMSO-containing solutions were stored at −18° C. All solutions were melted for administration at room temperature 16-20 hours before the start of the test.
Study design and time schedule:
4-7 days: Acclimatization and handling of the animals 1 day: Test day with • (a) Four repeated functional observational battery (FOB): 30 min, 60 min, 120 min, 180 min following compound administration • (b) Short animal check (SAC): 300 min following compound administration 1 day: Follow-up observation (FU): • 24 h (1440 min) following compound administration.
In all experimental parts, an experienced ethologist used lists of predefined methods and behavioural parameters in order to rate the behaviour of the animal (see table 7 for functional observational battery (FOB), table 8 for short animal check (SAC) and table 9 for follow-up observation (FU).
A statistical evaluation of the data was performed that enabled an assessment of the compound's effects on each parameter. Dose-response relationships are not necessarily linear. It was not clear a priori whether the response would be dose-dependent or whether low, medium or high dose effects would occur. Therefore, the data were correlated against a set of different numeric models of theoretical dose-response curves. For this kind of evaluation the measurement times were not differentiated. An average value over all measurement times was calculated for each animal. This value was taken as one measurement within the observation vector. The complete set of parameters measured for the animal (each one averaged over time) formed the observation vector. Each dose was then represented by three observation vectors (3 animals per dose). The effects of all doses were compared with vehicle (DMSO) as the observation vectors for the zero dose. A common pool of 24 animals for the zero dose was used for all compounds to be tested. For each test compound the obtained values for each parameter together with values from the pool of vehicle-treated (DMSO) animals were then correlated with theoretical dose-response models (analysis profiles). Since 8 doses were be used, there were 8 models, each assuming that the maximum compound effect occurred at one of these doses. Effects of other doses were assumed to be attenuated with a linearly descending slope of the theoretical curve. Correlation values and statistical significance of regression were then calculated. An error probability of p<0.05 (two-tailed testing) was taken as significance level. Non-significant regressions were neglected. In consequence, each parameter was assessed as not affected or affected by the compound in a dose-response relationship according to type 1 (low dose effect) up to type 8 (high dose effect). Dose response is maximal for the effect with the greatest absolute correlation coefficient. […]

[1] = molecular target: T2, A2A-adenosine receptor human recombinant (Homo sapiens, UniProt P29274); assay: Radioligand binding assay 1, human recombinant A2A adenosine receptor; conditions: human recombinant, [3H]MSX-2; read-out: A2A-adenosine receptor human recombinant [3H] MSX-2 Ki
T2 construct: expressed in transfected cells
Experimental: (§1) Rat brain preparations were used for A1- and A2A adenosine receptor (AR) and human recombinant cell samples for A1-, A2A- and A3 adenosine receptor radioligand binding studies. Affinity and selectivity was tested in displacement experiments with following radioligands: [^3H]CCPA for A1-adenosine receptors, [^3H]MSX-2 for A2A-receptors and [^3H]PSB-11 for A3-receptors. Results of these experiments are depicted in table 2b (human data) and table 2a (rat data). Radioligand binding test systems are e.g. generally described by Muller et al., Curr. Pharm. Des., 1996, 2, 501 and Weyler et al., ChemMedChem 2006, 1, 891 and references cited therein) These documents are incorporated herein by reference.

[2] = molecular target: T3, A1-adenosine receptor human recombinant (Homo sapiens, UniProt P30542); assay: Radioligand binding assay 1, human recombinant A1 adenosine receptor; conditions: [3H]CCPA
T3 construct: expressed in transfected cells
T3 sequence (P30542 1-326): T1 sequence (P30542 1-326)
Experimental: as §1

T2 sequence (P29274 whole entry): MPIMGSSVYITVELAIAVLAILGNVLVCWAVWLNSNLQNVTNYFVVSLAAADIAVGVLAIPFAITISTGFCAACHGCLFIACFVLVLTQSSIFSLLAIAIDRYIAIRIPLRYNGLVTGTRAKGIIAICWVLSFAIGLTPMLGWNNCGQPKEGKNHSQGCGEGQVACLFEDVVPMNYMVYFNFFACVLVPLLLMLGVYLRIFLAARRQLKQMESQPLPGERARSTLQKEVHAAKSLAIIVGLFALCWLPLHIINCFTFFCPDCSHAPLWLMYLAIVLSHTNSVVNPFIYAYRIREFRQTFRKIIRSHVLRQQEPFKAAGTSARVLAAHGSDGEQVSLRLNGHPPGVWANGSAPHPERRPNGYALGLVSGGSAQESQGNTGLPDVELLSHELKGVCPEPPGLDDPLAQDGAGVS
Sequence of Adenosine A2A (P29274 whole entry): as above

IC50 (Adenosine A2A): 200 nM
A2A AR Imax (Adenosine A2A): 97%
Ki (Adenosine A2A): 23 nM
IC50 (Adenosine A1): 3900 nM
A1 AR Imax (Adenosine A1): 49%
Ki (Adenosine A1): 854 nM
Compound: C#CCn1c(=O)c2c(nc(C#Cc3ccc(OC)c(OC)c3)n2C)n(CC)c1=O [drawing 618]

IC50 (Adenosine A2A): 900 nM
A2A AR Imax (Adenosine A2A): 117%
Ki (Adenosine A2A): 82 nM
IC50 (Adenosine A1): 1700 nM
A1 AR Imax (Adenosine A1): 90%
Ki (Adenosine A1): 370 nM
Compound: C#CCn1c(=O)c2c(nc(C#Cc3cccc(OC)c3)n2C)n(CCCO)c1=O [drawing 620]

Compound: C#CCn1c(=O)c2c(nc(C#Cc3ccc(OC)c(OC)c3)n2C)n(CCCO)c1=O [drawing 625]
Catalepsy (rats): 0
Hypersensitivity (rats): 0
Motor Coordination (rats): −
Patterns Activity (rats): ++
Respiration (rats): +++
Stereotypies (rats): +
Temperature (rats): −
Tremor (rats): +

A1 AR Imax (Adenosine A1): 100%
Compound: CCCn1c(=O)c2[nH]c(C3CCCC3)nc2n(CCC)c1=O [CPX, 8-Cyclopentyl 1,3-diprophylxanthine, reference compound]

IC50 (Adenosine A2A): 400 nM
A2A AR Imax (Adenosine A2A): 109%
Ki (Adenosine A2A): 40 nM
IC50 (Adenosine A1): 1300 nM
A1 AR Imax (Adenosine A1): 102%
Ki (Adenosine A1): 289 nM
Compound: C#CCn1c(=O)c2c(nc(C#Cc3cccc(C)c3)n2C)n(CCCO)c1=O [drawing 623]

IC50 (Adenosine A2A): 500 nM
A2A AR Imax (Adenosine A2A): 86%
Ki (Adenosine A2A): 47 nM
IC50 (Adenosine A1): 2300 nM
A1 AR Imax (Adenosine A1): 55%
Ki (Adenosine A1): 501 nM
Compound: C#CCn1c(=O)c2c(nc(C#Cc3cccc(OC)c3)n2CC#C)n(C)c1=O [drawing 621]

Compound: C#CCn1c(=O)c2c(nc(C#Cc3cccc(OC)c3)n2C)n(CCCO)c1=O [drawing 626]
Catalepsy (rats): 0
Hypersensitivity (rats): +
Motor Coordination (rats): 0
Patterns Activity (rats): +
Respiration (rats): ++
Stereotypies (rats): 0
Temperature (rats): 0
Tremor (rats): 0

Ki [1]: 225 ± 52 nM
Ki [2]: > 10000 nM
Compound: C#CCn1c(=O)c2c(nc(C#Cc3cccc(C)c3)n2C)n(C)c1=O [drawing 555]

Ki [1]: 200 ± 99 nM
Ki [2]: ≥ 1000 nM
Compound: C#CCn1c(=O)c2c(nc(C#Cc3ccc(OC)c(OC)c3)n2C)n(CC(C)C)c1=O [drawing 585]

Ki [1]: 55.3 ± 4.3 nM
Ki [2]: > 1000 nM
Compound: C#CCn1c(=O)c2c(nc(C#Cc3ccc(OC)c(OC)c3)n2C)n(CCOC)c1=O [drawing 574]

Ki [1]: 100 ± 28 nM
Ki [2]: > 1000 nM
Compound: C#CCn1c(=O)c2c(nc(C#Cc3ccc(F)c(OC)c3)n2C)n(CC)c1=O [drawing 588]

Ki [1]: 416 ± 44 nM
Ki [2]: > 1000 nM
Compound: C#CCn1c(=O)c2c(nc(C#Cc3ccc(OC)c(OC)c3)n2C)n(Cc2cccs2)c1=O [drawing 589]

Ki [1]: 59.8 ± 35.7 nM
Ki [2]: > 1000 nM
Compound: C#CCn1c(=O)c2c(nc(C#Cc3ccc(OC)c(OC)c3)n2C)n(CCO)c1=O [drawing 575]

Ki [1]: 13.9 ± 0.8 nM
Ki [2]: > 1000 nM
Compound: C#CCn1c(=O)c2c(nc(C#Cc3ccc(OC)c(OC)c3)n2C)n(Cc2ccco2)c1=O [drawing 579]

Ki [1]: 14 ± 4.1 nM
Ki [2]: > 1000 nM
Compound: C#CCn1c(=O)c2c(nc(C#Cc3ccc(OC)c(OC)c3)n2C)n(CC(C)O)c1=O (centres unmarked) [drawing 578]

Ki [1]: 30.8 ± 4.9 nM
Ki [2]: > 1000 nM
Compound: C#CCn1c(=O)c2c(nc(C#Cc3ccc(OC)c(OC)c3)n2C)n(CCF)c1=O [drawing 587]

Ki [1]: 103 nM
Ki [2]: > 1000 nM
Compound: C#CCn1c(=O)c2c(nc(C#Cc3ccc(OC)c(OC)c3)n2C)n(Cc2cnc[nH]2)c1=O [drawing 593]

Ki [1]: 226 ± 62 nM
Ki [2]: > 1000 nM
Compound: C#CCn1c(=O)c2c(nc(C#Cc3cccc(OCCO)c3)n2C)n(C)c1=O [drawing 557]

Ki [1]: < 10 nM
Ki [2]: > 1000 nM
Compound: C#CCn1c(=O)c2c(nc(C#Cc3cccc(OCc4ccoc4)c3)n2C)n(C)c1=O [drawing 562]

Ki [1]: 64.8 ± 12 nM
Ki [2]: > 3000 nM
Compound: C#CCn1c(=O)c2c(nc(C#Cc3cccc(OC)c3)n2C)n(CC)c1=O [drawing 565]

Ki [1]: 90.3 ± 13.7 nM
Ki [2]: > 1000 nM
Compound: C#CCn1c(=O)c2c(nc(C#Cc3cccc(OCCN(C)C)c3)n2C)n(C)c1=O [drawing 560]

Compound: C#CCn1c(=O)c2c(nc(C#Cc3ccc(OC)c(OC)c3)n2C)n(CC)c1=O [drawing 624]
Catalepsy (rats): 0
Hypersensitivity (rats): ++
Motor Coordination (rats): 0
Patterns Activity (rats): +++
Respiration (rats): +++
Stereotypies (rats): ++
Temperature (rats): +
Tremor (rats): 0

Ki [1]: 28.9 ± 1.3 nM
Ki [2]: > 1000 nM
Compound: C#CCn1c(=O)c2c(nc(C#Cc3cccc(OCCOC)c3)n2C)n(C)c1=O [drawing 559]

Ki [1]: 5.5 ± 1.4 nM
Ki [2]: > 3000 nM
Compound: C#CCn1c(=O)c2c(nc(C#Cc3cccc(OC)c3)n2C)n(CCCO)c1=O [drawing 564]

Ki [1]: 51.7 ± 8.7 nM
Ki [2]: > 20000 nM
Compound: C#CCn1c(=O)c2c(nc(C#Cc3ccc(OC)c(OC)c3)n2C)n(CCN(C)C)c1=O [drawing 568]

Ki [1]: 89.7 ± 16.1 nM
Ki [2]: > 3000 nM
Compound: C#CCn1c(=O)c2c(nc(C#Cc3cccc(C)c3)n2C)n(CC)c1=O [drawing 566]

Ki [1]: 38.2 ± 8.5 nM
Ki [2]: > 1000 nM
Compound: C#CCn1c(=O)c2c(nc(C#Cc3ccc(OC)c(OC)c3)n2C)n(CC(=O)OC)c1=O [drawing 598]

Ki [1]: 62.7 ± 10.7 nM
Ki [2]: > 1000 nM
Compound: C#CCn1c(=O)c2c(nc(C#Cc3ccc(OC)c(OC)c3)n2C)n(CC(O)CO)c1=O (centres unmarked) [drawing 595]

Ki [1]: 17.7 ± 0.7 nM
Ki [2]: > 1000 nM
Compound: C#CCn1c(=O)c2c(nc(C#Cc3ccc(OC)c(OC)c3)n2C)n(CC)c1=O [drawing 567]

Ki [1]: 36.6 ± 8.7 nM
Ki [2]: > 1000 nM
Compound: C#CCn1c(=O)c2c(nc(C#Cc3ccc(OC)c(OC)c3)n2C)n(CCC)c1=O [drawing 584]

Ki [1]: 36.4 ± 0.6 nM
Ki [2]: > 3000 nM
Compound: C#CCn1c(=O)c2c(nc(C#Cc3ccc(OC)c(OC)c3)n2C)n(C)c1=O [drawing 554]

From US20080221134A1, “8-ALKYNYLXANTHINES AND DERIVATIVES” (priority 2006, published 2008)
